Experimental data: patent US20260223859A1, “PLANT DISEASE CONTROL COMPOSITION COMPRISING CULTURE BROTH OF STREPTOMYCES SP. JCK-6141 STRAIN OR EXTRACT OF CULTURE BROTH OF STRAIN, PREPARATION METHOD THEREFOR AND PLANT DISEASE CONTROL METHOD” (priority 2020, published 2026)
≈ marks a conversion by molar mass, not a printed value.

Assays:
[1] = system: Puccinia recondite; test: In vivo control of wheat leaf rust; settings: wheat cultivar Eunpa, 7 days after inoculation
[2] = system: Rhizoctonia solani; test: In vivo control of rice sheath blight (RSB); settings: rice cultivar Nakdong
Protocol: The control efficacy of Streptomyces sp. JCK-6141 strain against rice sheath blight (RSB) was examined in vivo. As an experimental plant, the rice cultivar Nakdong (Oryza sativa L.) was used.
One day before pathogen inoculation, the Nakdong rice plants were treated by soil drenching with 10 ml of each of the 3-fold and 9-fold dilutions of the Streptomyces sp. JCK-6141 strain culture in distilled water. After putting an appropriate amount of Nakdong rice bran treated with the dilutions was put into a 1-L culture bottle and sterilized, followed by evenly inoculating finely ground mycelial mass of cultured Rhizoctonia solani into the pots where the rice plants had been grown. After inoculation, incubation was carried out for 3 days in a humid chamber (25° C.) and then for 4 days in an incubator with a relative humidity of 80%. Examination was made of the onset of the disease. As a control, the synthetic chemical fungicide Flutolanil was used at 20 μg/ml or 50 μg/ml concentration.

[3] = system: Phythium ultimum; test: organism not typed; assay type: cell-based; settings: 24 hours at 25° C.; read-out: MIC, F61
[4] = system: Fusarium oxysporum f. sp. raphani; test: microbe, parasite or virus in culture; assay type: cell-based; settings: 24 hours at 25° C., read-out: MIC, F61
[5] = system: Fusarium oxysporum f. sp. cucumerinum; test: microbe, parasite or virus in culture; assay type: cell-based; settings: 24 hours at 25° C., read-out: MIC, F61
[6] = system: Magnapothe oryzae; test: organism not typed; assay type: cell-based; settings: 24 h, read-out: MIC, F61 (μg/ml)
[7] = system: Curvularia lunata; test: microbe, parasite or virus in culture; assay type: cell-based; settings: 24 hours at 25° C., read-out: MIC, F61
[8] = system: Rhizoctonia solani; test: microbe, parasite or virus in culture; assay type: cell-based; settings: 24 hours at 25° C., read-out: MIC, F61
[9] = system: Magnaporthiopsis poae; test: microbe, parasite or virus in culture; assay type: cell-based; settings: 24 hours at 25° C., read-out: MIC, F61
[10] = system: Sclerotinia homoeocarpa; test: microbe, parasite or virus in culture; assay type: cell-based; settings: Clarireedia homoeocarpa; 24 hours at 25° C.; read-out: MIC, F61
[11] = system: Phytophthora cambivora; test: microbe, parasite or virus in culture; assay type: cell-based; settings: 24 hours at 25° C., read-out: MIC, F61
[12] = system: Phytophthora cinnamomi; test: microbe, parasite or virus in culture; assay type: cell-based; settings: 24 hours at 25° C., read-out: MIC, F61
[13] = system: Fusarium graminearum; test: microbe, parasite or virus in culture; assay type: cell-based; settings: 24 h, read-out: MIC, F61 (μg/ml)
[14] = system: Gaeumannomyces graminis; test: microbe, parasite or virus in culture; assay type: cell-based; settings: 24 hours at 25° C., read-out: MIC, F61
[15] = system: Botryritis cinerea; test: organism not typed; assay type: cell-based; settings: 24 hours at 25° C.; read-out: MIC, F61
[16] = system: Botryoshpaeria dothidea; test: organism not typed; assay type: cell-based; settings: 24 hours at 25° C.; read-out: MIC, F61
[17] = system: Phytophthora cactorum; test: microbe, parasite or virus in culture; assay type: cell-based; settings: 24 hours at 25° C., read-out: MIC, F61
[18] = system: Colletotrichum horii; test: microbe, parasite or virus in culture; assay type: cell-based; settings: 24 hours at 25° C., read-out: MIC, F61
[19] = system: Valsa ceratosperma; test: microbe, parasite or virus in culture; assay type: cell-based; settings: Cytospora ceratosperma; 24 hours at 25° C.; read-out: MIC, F61
[20] = system: Endothia parasitica; test: microbe, parasite or virus in culture; assay type: cell-based; settings: Cryphonectria parasitica; 24 hours at 25° C.; read-out: MIC, F61

**Q.** `CC(C)Oc1cccc(NC(=O)c2ccccc2C(F)(F)F)c1` [Flutolanil] was tested. Which “Wheat leaf rust control (%)” value ([1]; 20 μg/ml) did it give?
**A.** 73.3 ± 6.7 b %

**Q.** And the “Wheat leaf rust control (%)” value ([1]; 50 μg/ml)?
**A.** 100.0 ± 0.0 a %

**Q.** What about the “RSB Control (%)” value ([2]; 20 μg/ml) of the same compound?
**A.** 100.0 ± 0.0 a %

**Q.** And the “RSB Control (%)” value ([2]; 50 μg/ml)?
**A.** 100.0 ± 0.0 a %

**Q.** `CCCCCC[C@@]1(OC(=O)CCC(=O)O)CC[C@]2(CC[C@H](C)[C@@H](C/C=C(C)/C=C/[C@H](O)[C@@H](C)/C=C/C(=O)O)O2)O[C@H]1/C=C/C(C)=C/C(=O)O` [F61, reveromycin E] was tested. Which MIC [3] did it give?
**A.** 1.56 µg/mL (≈ 2.26 µM)

**Q.** And the MIC [4]?
**A.** 1.56 µg/mL (≈ 2.26 µM)

**Q.** What about the MIC [5] of the same compound?
**A.** 1.56 µg/mL (≈ 2.26 µM)

**Q.** And the MIC [6]?
**A.** 0.78 µg/mL (≈ 1.13 µM)

**Q.** And the MIC [7]?
**A.** 0.78 µg/mL (≈ 1.13 µM)

**Q.** And the MIC [8]?
**A.** 1.56 µg/mL (≈ 2.26 µM)

**Q.** What about the MIC [9] of the same compound?
**A.** 0.0244 µg/mL (≈ 0.0354 µM)

**Q.** And the MIC [10]?
**A.** 0.195 µg/mL (≈ 0.283 µM)

**Q.** What about the MIC [11] of the same compound?
**A.** 0.195 µg/mL (≈ 0.283 µM)

**Q.** And the MIC [12]?
**A.** 0.39 µg/mL (≈ 0.566 µM)

**Q.** And the MIC [13]?
**A.** 0.195 µg/mL (≈ 0.283 µM)

**Q.** And the MIC [14]?
**A.** 3.12 µg/mL (≈ 4.54 µM)

**Q.** What about the MIC [15] of the same compound?
**A.** 1.56 µg/mL (≈ 2.26 µM)

**Q.** And the MIC [16]?
**A.** 0.098 µg/mL (≈ 0.142 µM)

**Q.** What about the MIC [17] of the same compound?
**A.** 0.195 µg/mL (≈ 0.283 µM)

**Q.** What about the MIC [18] of the same compound?
**A.** 0.049 µg/mL (≈ 0.0711 µM)

**Q.** What about the MIC [19] of the same compound?
**A.** 0.78 µg/mL (≈ 1.13 µM)

**Q.** What about the MIC [20] of the same compound?
**A.** 1.56 µg/mL (≈ 2.26 µM)
